Biological target: T1, human TLR9 (Homo sapiens, UniProt Q9NR96)
T1 sequence (Q9NR96 26-1032): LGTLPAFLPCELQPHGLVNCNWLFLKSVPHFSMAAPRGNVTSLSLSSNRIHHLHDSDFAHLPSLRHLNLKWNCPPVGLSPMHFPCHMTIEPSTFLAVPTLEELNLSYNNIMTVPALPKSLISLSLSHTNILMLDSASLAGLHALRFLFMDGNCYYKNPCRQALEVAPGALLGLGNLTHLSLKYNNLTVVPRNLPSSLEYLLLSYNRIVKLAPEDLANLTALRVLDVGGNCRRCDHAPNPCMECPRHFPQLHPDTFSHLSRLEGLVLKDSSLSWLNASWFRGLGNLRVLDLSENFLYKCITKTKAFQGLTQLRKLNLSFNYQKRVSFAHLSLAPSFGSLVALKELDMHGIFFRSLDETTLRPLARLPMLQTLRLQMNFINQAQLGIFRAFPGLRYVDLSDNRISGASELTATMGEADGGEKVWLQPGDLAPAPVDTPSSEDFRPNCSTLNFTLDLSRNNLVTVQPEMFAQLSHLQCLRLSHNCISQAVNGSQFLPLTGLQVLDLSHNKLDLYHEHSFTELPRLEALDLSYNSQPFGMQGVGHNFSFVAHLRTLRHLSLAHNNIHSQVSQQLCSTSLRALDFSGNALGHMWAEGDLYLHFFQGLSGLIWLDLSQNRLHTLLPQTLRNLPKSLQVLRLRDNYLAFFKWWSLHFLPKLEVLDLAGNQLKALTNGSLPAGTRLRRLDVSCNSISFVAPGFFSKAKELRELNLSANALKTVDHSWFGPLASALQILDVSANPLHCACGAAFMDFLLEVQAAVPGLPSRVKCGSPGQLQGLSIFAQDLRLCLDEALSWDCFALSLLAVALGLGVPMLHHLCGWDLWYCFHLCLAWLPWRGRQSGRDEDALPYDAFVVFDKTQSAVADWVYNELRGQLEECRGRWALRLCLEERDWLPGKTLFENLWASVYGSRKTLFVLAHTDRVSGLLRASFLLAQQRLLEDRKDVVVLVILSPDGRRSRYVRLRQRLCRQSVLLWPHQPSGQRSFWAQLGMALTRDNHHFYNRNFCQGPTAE
Assay: TLR9 inhibition reporter assay (HEK-Blue SEAP, ODN2006 stimulation)
Assay type: cell-based
Settings: HEK-Blue cells overexpressing human TLR9, ODN2006 5 nM
Method: TLR7/8/9 Inhibition Reporter Assays
HEK-Blue™-cells (Invivogen) overexpressing human TLR7, TLR8 or TLR9 receptors were used for screening inhibitors of these receptors using an inducible SEAP (secreted embryonic alkaline phosphatase) reporter gene under the control of the IFN-β minimal promoter fused to five NF-κB and AP-1-binding sites. Briefly, cells are seeded into Greiner 384 well plates (15000 cells per well for TLR7, 20,000 for TLR8 and 25,000 for TLR9) and then treated with test compounds in DMSO to yield a final dose response concentration range of 0.05 nM-50 μM. After a 30 minute compound pre-treatment at room temperature, the cells are then stimulated with a TLR7 ligand (gardiquimod at a final concentration of 7.5 μM), TLR8 ligand (R848 at a final concentration of 15.9 μM) or TLR9 ligand (ODN2006 at a final concentration of 5 nM) to activate NF-κB and AP-1 which induce the production of SEAP. After a 22 hour incubation at 37° C., 5% CO2, SEAP levels are determined with the addition of HEK-Blue™ Detection reagent (Invivogen), a cell culture medium that allows for detection of SEAP, according to manufacturer's specifications. The percent inhibition is determined as the % reduction in the HEK-Blue signal present in wells treated with agonist plus DMSO alone compared to wells treated with a known inhibitor.

IC50, > 50 µM:
CC(C)c1c(-c2cn(C)c3ncccc23)[nH]c2sc(C3CCN(CC(N)=O)CC3)nc12 [Example 31, 2-(4-(6-isopropyl-5-(1-methyl-1H-pyrrolo[2,3-b]pyridin-3-yl)-4H-pyrrolo[3,2-d]thiazol-2-yl)piperidin-1-yl) acetamide]
CC(C)c1c(-c2cn(C)c3ncccc23)[nH]c2sc(C3CCN(C(=O)CN(C)C)CC3)nc12 [Example 32, 2-(dimethylamino)-1-(4-(6-isopropyl-5-(1-methyl-1H-pyrrolo[2,3-b]pyridin-3-yl)-4H-pyrrolo[3,2-d]thiazol-2-yl)piperidin-1-yl)ethan-1-one]
CC(C)c1c(-c2cn(C)c3ncccc23)[nH]c2sc(C3CCN(CCS(C)(=O)=O)CC3)nc12 [Example 33, 6-isopropyl-5-(1-methyl-1H-pyrrolo[2,3-b]pyridin-3-yl)-2-(1-(2-(methylsulfonyl)ethyl)piperidin-4-yl)-4H-pyrrolo[3,2-d]thiazole]
CC(C)c1c(-c2cn(C)c3ncccc23)[nH]c2sc(C3CCN(C4COC4)CC3)nc12 [Example 34, 6-isopropyl-5-(1-methyl-1H-pyrrolo[2,3-b]pyridin-3-yl)-2-(1-(oxetan-3-yl)piperidin-4-yl)-4H-pyrrolo[3,2-d]thiazole]
Cc1c(-c2[nH]c3sc(C4CCN(C5COC5)CC4)nc3c2C(C)C)cn2ncnc2c1C [Example 43, 5-(7,8-dimethyl-[1,2,4]triazolo[1,5-a]pyridin-6-yl)-6-isopropyl-2-(1-(oxetan-3-yl)piperidin-4-yl)-4H-pyrrolo[3,2-d]thiazole]
Cc1c(-c2[nH]c3sc(C4CCN(CCS(C)(=O)=O)CC4)nc3c2C(C)C)cn2ncnc2c1C [Example 55, 5-(7,8-dimethyl-[1,2,4]triazolo[1,5-a]pyridin-6-yl)-6-isopropyl-2-(1-(2-(methylsulfonyl)ethyl)piperidin-4-yl)-4H-pyrrolo[3,2-d]thiazole]
CC(=O)N1CCC(c2nc3c(C(C)C)c(-c4cn5ncnc5c(C)c4C)[nH]c3s2)CC1 [Example 59, 1-(4-(5-(7,8-dimethyl-[1,2,4]triazolo[1,5-a]pyridin-6-yl)-6-isopropyl-4H-pyrrolo[3,2-d]thiazol-2-yl)piperidin-1-yl)ethan-1-one]
Cc1c(-c2[nH]c3sc(C4CCN(C5COC5)CC4)nc3c2C(C)C)cn(C)c(=O)c1C [Example 60, 5-(6-isopropyl-2-(1-(oxetan-3-yl)piperidin-4-yl)-4H-pyrrolo[3,2-d]thiazol-5-yl)-1,3,4-trimethylpyridin-2 (1H)-one]
Cc1c(-c2[nH]c3sc(C4CCN(CCS(C)(=O)=O)CC4)nc3c2C(C)C)cn(C)c(=O)c1C [Example 61, 5-(6-isopropyl-2-(1-(2-(methylsulfonyl)ethyl)piperidin-4-yl)-4H-pyrrolo[3,2-d]thiazol-5-yl)-1,3,4-trimethylpyridin-2 (1H)-one]
Cc1c(-c2[nH]c3sc(C4CCN(CC(=O)N(C)C)CC4)nc3c2C(C)C)cn(C)c(=O)c1C [Example 62, 2-(4-(6-isopropyl-5-(1,4,5-trimethyl-6-oxo-1,6-dihydropyridin-3-yl)-4H-pyrrolo[3,2-d]thiazol-2-yl)piperidin-1-yl)-N,N-dimethylacetamide]
CNC(=O)CN1CCC(c2nc3c(C(C)C)c(-c4cn(C)c(=O)c(C)c4C)[nH]c3s2)CC1 [Example 63, 2-(4-(6-isopropyl-5-(1,4,5-trimethyl-6-oxo-1,6-dihydropyridin-3-yl)-4H-pyrrolo[3,2-d]thiazol-2-yl)piperidin-1-yl)-N-methylacetamide]
Cc1c(-c2[nH]c3sc(C4CCN(CC(N)=O)CC4)nc3c2C(C)C)cn(C)c(=O)c1C [Example 64, 2-(4-(6-isopropyl-5-(1,4,5-trimethyl-6-oxo-1,6-dihydropyridin-3-yl)-4H-pyrrolo[3,2-d]thiazol-2-yl)piperidin-1-yl)acetamide]
Cc1c(-c2[nH]c3sc(N4CCN(CCS(C)(=O)=O)CC4)nc3c2C(C)C)cn2ncnc2c1C [Example 282, 5-(7,8-dimethyl-[1,2,4]triazolo[1,5-a]pyridin-6-yl)-6-isopropyl-2-(4-(2-(methylsulfonyl)ethyl)piperazin-1-yl)-4H-pyrrolo[3,2-d]thiazole]
Cc1c(-c2[nH]c3sc(N4CCN(CC(=O)N(C)C)CC4)nc3c2C(C)C)cn2ncnc2c1C [Example 283, 2-(4-(5-(7,8-dimethyl-[1,2,4]triazolo[1,5-a]pyridin-6-yl)-6-isopropyl-4H-pyrrolo[3,2-d]thiazol-2-yl)piperazin-1-yl)-N,N-dimethylacetamide]
CNC(=O)CN1CCN(c2nc3c(C(C)C)c(-c4cn5ncnc5c(C)c4C)[nH]c3s2)CC1 [Example 284, 2-(4-(5-(7,8-dimethyl-[1,2,4]triazolo[1,5-a]pyridin-6-yl)-6-isopropyl-4H-pyrrolo[3,2-d]thiazol-2-yl)piperazin-1-yl)-N-methylacetamide]
Cc1c(-c2[nH]c3sc(N4CCN(CC(N)=O)CC4)nc3c2C(C)C)cn2ncnc2c1C [Example 285, 2-(4-(5-(7,8-dimethyl-[1,2,4]triazolo[1,5-a]pyridin-6-yl)-6-isopropyl-4H-pyrrolo[3,2-d]thiazol-2-yl)piperazin-1-yl)acetamide]
Cc1c(-c2[nH]c3sc(N4CCN(C5COC5)CC4)nc3c2C(C)C)cn2ncnc2c1C [Example 286, 5-(7,8-dimethyl-[1,2,4]triazolo[1,5-a]pyridin-6-yl)-6-isopropyl-2-(4-(oxetan-3-yl)piperazin-1-yl)-4H-pyrrolo[3,2-d]thiazole]
Cc1c(-c2[nH]c3sc(N4CC5(C4)CN(C4COC4)C5)nc3c2C(C)C)cn2ncnc2c1C [Example 302, 5-(7,8-dimethyl-[1,2,4]triazolo[1,5-a]pyridin-6-yl)-6-isopropyl-2-(6-(oxetan-3-yl)-2,6-diazaspiro[3.3]heptan-2-yl)-4H-pyrrolo[3,2-d]thiazole]
Cc1c(-c2[nH]c3sc(N4CC5(CN(CCS(C)(=O)=O)C5)C4)nc3c2C(C)C)cn(C)c(=O)c1C [Example 305, 5-(6-isopropyl-2-(6-(2-(methylsulfonyl)ethyl)-2,6-diazaspiro[3.3]heptan-2-yl)-4H-pyrrolo[3,2-d]thiazol-5-yl)-1,3,4-trimethylpyridin-2 (1H)-one]
Cc1c(-c2[nH]c3sc(N4CC5(C4)CN(C4COC4)C5)nc3c2C(C)C)cn(C)c(=O)c1C [Example 306, 5-(6-isopropyl-2-(6-(oxetan-3-yl)-2,6-diazaspiro[3.3]heptan-2-yl)-4H-pyrrolo[3,2-d]thiazol-5-yl)-1,3,4-trimethylpyridin-2 (1H)-one]
Cc1c(-c2[nH]c3sc(N4CC5(CN(CC6CCOCC6)C5)C4)nc3c2C(C)C)cn(C)c(=O)c1C [Example 307, 5-(6-isopropyl-2-(6-((tetrahydro-2H-pyran-4-yl)methyl)-2,6-diazaspiro[3.3]heptan-2-yl)-4H-pyrrolo[3,2-d]thiazol-5-yl)-1,3,4-trimethylpyridin-2 (1H)-one]
Cc1c(-c2[nH]c3sc(N4CCN(CC(=O)N(C)C)C[C@H]4C)nc3c2C(C)C)cn2ncnc2c1C [Example 312, (R)-2-(4-(5-(7,8-dimethyl-[1,2,4]triazolo[1,5-a]pyridin-6-yl)-6-isopropyl-4H-pyrrolo[3,2-d]thiazol-2-yl)-3-methylpiperazin-1-yl)-N,N-dimethylacetamide]
